Assay results taken from patent publication US20100048545A1, “Compounds and Compositions for Use in the Prevention and Treatment of Disorders of Fat Metabolism and Obesity” (INNODIA INC., priority 2006, published 2010).
Like-named read-outs stand apart in the source and are kept apart here.

Columns and labels:
[1] = system: DIO-mice; assay type: in vivo
Excerpt: The objective of this study was to evaluate the effect of chronic administration of 4-hydroxyisoleucine (4-OH, compound 14a) on food consumption and body weight gain of DIO-mice. Both parameters were monitored for 1 week prior to the commencement of treatment, then for the 77 days of treatment and for an additional 12 days post-treatment.
C57BL/6 mice were received at 7-8 weeks of age and fed a high fat diet (60% of calories from fat) for several weeks. A total of 32 animals were used in the study. The animals were distributed into 4 groups (3 treated, 1 control group, all on high fat diet). Each group was composed of 8 animals. The mice were randomized according to body weight and basal glycemia values following a 5±0.5 hour fasting period.
The test agent was dissolved in reverse osmosis water. 4-Hydroxyisoleucine was aliquoted and kept at 4° C. Control animals received reverse osmosis water twice daily (group 1). Mice from groups 2, 3 and 4 were treated twice daily with 4-hydroxyisoleucine (4-OH, compound 14a) at 100, 50, and 25 mg/kg, respectively. All groups were treated by oral gavage. Treatment commenced on Day 0 and ended on Day 77. Food consumption was measured daily and averaged on a weekly basis beginning one week before the start of treatment as shown in FIG. 16B. Similarly, food consumption was monitored during the treatment period and for 12 days after treatment was stopped as shown in FIGS. 16A and 16B.

[2] = system: wistar obese rats; test: Reversal of weight gain in rat model of diet-induced obesity, 28 days; details: 100 mg/kg twice daily oral
Excerpt: The aim of this study was to evaluate the effect of chronic administration of 4-hydroxyisoleucine (4-OH, Compound 14a) on food consumption, tissue weight, and body weight gain of wistar obese rats.
A total of 30 animals were used in the study. The animals were acclimated for 1 week and fed standard chow. The animals were randomized into 3 groups of 10 animals each. Two groups were fed a high fat, high sucrose diet (HFHS), and 1 untreated control group was fed standard chow over a 28 day period. Animals were housed separately and food consumption was monitored daily.
In the following period of 28 days, the feeding regimen remained the same for the 3 groups; however, 1 group fed HFHS was treated with twice daily oral administration of 4-OH at 100 mg/kg per dose. For the 28 days of treatment, 4-OH was dissolved in reverse osmosis water, aliquoted, and kept at 4° C. Untreated animals received water twice daily.

[3] = system: Wistar rat model of diet-induced obesity; test: Body fat (DEXA) and white adipose tissue weight in Wistar rat model of diet-induced obesity; assay type: in vivo, Wistar rats; details: 28 days
Excerpt: A total of 60 animals were used in the study. The animals were distributed into 6 groups; 1 group was fed standard chow, 1 group was fed a high fat, high sucrose (HFHS) diet with 28 days treatment, 1 untreated control group was fed a HFHS diet, and 1 untreated group was fed a HFHS diet, but with caloric intake restricted to match the caloric intake of the 4-OH treated animals (pair-fed animals). A fifth group was fed a high fat, high sucrose (HFHS) diet with 28 days treatment and received an acute oral administration of 4-OH prior to experimentation on Day 29 of the study, and a sixth group was fed a HFHS diet, but with caloric intake restricted to match the caloric intake of the 4-OH treated animals receiving an acute oral administration of 4-OH on Day 29 of the study (pair-fed animals). Each group was composed of 10 animals. […] Immediately prior to commencement of treatment the animals were evaluated by DEXA scanning (Dual Energy X-ray Absortiometry) to determine the baseline percentage of body weight related to fat. For the four weeks of treatment, the test article (4-OH) was dissolved in reverse osmosis water. 4-OH was aliquoted and kept at 4° C. […] Untreated animals received water twice daily.

[4] = system: Wistar rats fed HFHS diets; test: Energy expenditure (oxygen consumption) by indirect calorimetry in HFHS fed rats; assay type: in vivo; details: 100 mg/kg oral gavage twice daily, 4 weeks, vs pair fed and HFHS control, p<0.01
Experimental: A study was conducted to determine whether the decrease in adiposity as described above was due to increased energy expenditure. For this study, Wistar rats were randomized into 3 groups (n=10/group) and fed HFHS diets. […] The second group of animals served as pair fed controls, and while not treated with drug, diet in terms of caloric intake was matched to treated animals. The third group was fed a HFHS diet ad libitum without any treatment. After a 4 week period of treatment these animals were assessed by indirect calorimetry with increased oxygen consumption used as an indicator of increased energy expenditure.

[5] = system: AMPK-ACC; test: Phosphorylation level of AMPK-ACC in the hypothalamus of HFHS fed rats (Western blot, anti-pACC); assay type: in vivo; details: 100 mg/kg BID for 2 days, overnight fasted, dosed one hour before terminal procedure, vs control
Excerpt: The AMPK pathway is known to regulate food intake in the hypothalamus. In low energy state as in a food deprivation situation, AMPK phosphorylates and in this way inactivates acetyl CoA carboxylase (ACC). Phosphorylation of ACC thus reduces its ability to catalyse the production of malonyl-CoA which is thought to be implicated in the […] of food consumption (.Hu, Z., Dai, Y., Prentki, M., Chohnan, S, and Lane, D. (2005) J. Biol. Chem. 280: 39681-39683).
To investigate whether 4-OH can alter activity of the AMPK/ACC in the hypothalamus, rats were treated BID with 100 mg/kg of 4-OH or water (control group) for 2 days. Each group was composed of four animals. All rats (controls and 4-OH treated) were fasted overnight before experimentation. On day 29, rats from each respective group were treated one hour before the terminal procedure with their appropriate solution (water for control and 4-OH for chronically 4-OH treated rats). After decapitation, the hypothalamus were isolated and snap frozen in liquid nitrogen. The hypothalamus was then powdered with liquid nitrogen and then solubilized in lysis buffer. Western blot was performed on the hypothalamus extract after resolution of proteins onto a 7.5% polyacrylamide SDS gel and transfer onto a nitrocellulose membrane. […]

`C[C@@H]([C@H](C)O)[C@H](N)C(=O)O` [Compound 14a, (2S,3R,4S)-4-Hydroxyisoleucine] was tested, and the body weight gain ([1]; 100 mg/kg twice daily, Day 28 to Day 84) was “significantly effective at controlling body weight gain”, the body weight gain ([1]; 100 mg/kg twice daily, Day 28 to Day 84, listed as 4-OH) was “sustained and highly significant” and the food consumption ([1]; 100 mg/kg twice daily, first week of treatment) was “slight decrease in food consumption”. For the same compound, the “body weight gain and food consumption after treatment was stopped” value ([1]; 100 mg/kg, first week following cessation of treatment) was “increase in the first week following cessation of treatment”, the tolerability of treatment ([1]; 25, 50 and 100 mg/kg twice daily, oral gavage, 77 days) was “well-tolerated” and the body weight gain ([1]; 50 and 100 mg/kg twice daily, first three weeks of treatment) was “moderation of weight gain was observed”. The “epididymal and peri-renal adipose tissue” value [2] was “reduction of epididymal and peri-renal adipose tissue”, the food consumption [2] was “reduction in food consumption” and the “muscle, brown fat, and organ weight” value [2] was “not affected”. For the same compound, the tolerability of treatment ([2]; after 28 days HFHS) was “well tolerated”, the weight gain ([2]; after 28 days HFHS) was “reversal of weight gain” and the weight gain ([2]; after 28 days HFHS, listed as 4-OH) was “Moderation of weight gain was observed”. The “percentage change in fat composition relative to baseline (DEXA)” value ([3]; 100 mg/kg twice daily oral, HFHS ad libitum, p<0.01) was “significant reduction in percentage fat”, the “weight of white adipose tissues compared with normal chow animals” value ([3]; 100 mg/kg twice daily) was “the same as untreated animals receiving normal chow” and the “weight of white adipose tissue (epididymal, inguinal and retroperitoneal)” value ([3]; 100 mg/kg twice daily, vs pair fed untreated and HFHS controls) was “significant reduction in the weight of these tissues”. The “oxygen consumption (energy expenditure), night phase” value [4] was “oxygen consumption was increased” and the “level of phosphorylated ACC in hypothalamus” value [5] was “even more reduced”.
